Laboratory results from EP3381906A1, “COMPOUNDS FOR USE AS HEPARANASE INHIBITORS” (Leadiant Biosciences SA, priority 2017, dated 2018).

Assays:
[1] = test system: HT1080 (human fibrosarcoma); assay: Matrigel cell invasion assay; assay type: cell-based; settings: for inhibition at 2.5 µM: HT-1080, HT1080, Conc. 2.5 µM
Method: Heparanase inhibitors were then evaluated for their activity on the invasive potential of HT1080 (human fibrosarcoma) human cell lines, using the Matrigel cell invasion assay which allows to assess the cell invasion ability of malignant and normal cells.
Invasion assay was performed using BioCoat cell culture inserts (BioCoat 8.0µm PET Membrane 24 Well Permeable Supports, Corning). Filters were coated with 100 µl of 300 µg/ml Matrigel dissolved in coating buffer (0.01M Tris pH 8.0, 0.7% NaCl) (Becton-Dickinson Sciences). DMEM (Dulbecco's Modified Eagle's Medium) containing 5% FBS was added to the lower chambers. Cells were pre-treated with heparanase inhibitors for 24 h, detached and added to the upper chambers in media containing the inhibitors. Cells were allowed to invade for 24 h at 37°C in a CO2 incubator and then unmigrated cells were removed from the upper chamber with a cotton swab. The invading cells were fixed, stained with 0.1% crystal violet for 10 min at room temperature, photographed and counted under inverted microscope.
Test compounds were analyzed at fixed concentration for several fields, in duplicates. Activity of test compounds was compared to the reference compound. Activity of most interesting compound was confirmed in a second cell invasion assay. Data were expressed as the percent invasion with respect to cell migration through uncoated insert membrane. (Table 5)

U87MG [2] = assay: Matrigel cell invasion assay; assay type: cell-based, human; design: key to Invasion Assay Inhibition (%) U87MG: +++: > 90%; ++: 50-90 %; +: < 50%; -: Not active; settings: for inhibition at 2.5 µM: Homo sapiens, U-87 MG, Conc. 2.5 µM
U2OS = assay: Matrigel cell invasion assay; assay type: cell-based, human; design: key to Invasion Assay Inhibition (%) U2OS: +++: > 90%; ++: 50-90 %; +: < 50%; -: Not active; settings: for inhibition at 2.5 µM: Homo sapiens, Conc. 2.5 µM
[3] = test system: HT1080 (human fibrosarcoma); assay: Cell adhesion assay on matrigel coated wells; assay type: cell-based; settings: percent of adhesion with respect to the control (100%)
Method: Cell surface, non-integrin molecules such as heparan sulfate proteoglycans (HSPGs) may be involved in the regulation of early adhesive stages of cell-ECM interactions. A cell adhesion assay has been employed to determine if the newly designed heparanase inhibitors were able to interfere with adhesion properties of cancer cells.
HT1080 (human fibrosarcoma) cells were treated for 18-20 h with test compounds in complete medium supplemented with 10% FCS. Then cells were collected, washed in complete medium, and added to matrigel coated wells in triplicate, at previously identified optimal seeding density, and incubated at 37 °C in complete medium for times ranging from 15 minutes to 4h, according to the cell line. After incubation, the wells were washed three times with serum-free medium and the remaining firmly attached cells were stained with crystal-violet 0.1%. Optical density was measured at 560 nm by Victor 3 (Perkin-Elmer) plate analyzer. Each experiment was repeated three times.

U87MG [4] = assay: Cell adhesion assay on matrigel coated wells; assay type: cell-based, human; settings: percent of adhesion with respect to the control (100%)
FGF-1 = assay: Real-Time Quantitative PCR of pro-angiogenic genes in HT1080 cells; assay type: cell-based, human; settings: 24 h, Conc 2.5 uM
Method: (§1) To evaluate the effect of heparanase inhibitors on the tumor transcription of genes encoding for proangiogenic factors, such as FGF1/2, VEGF, MMP-9, HSPE-1, the relative mRNA levels were analyzed by quantitative Real-Time Quantitative PCR. To perform the assay, HT1080 (human fibrosarcoma) cells were cultured in complete medium containing 10%FCS (fetal calf serum). Cells were plated in 24-well plates and treated at fixed concentration (i.e., highest non-toxic concentration) of test compounds. After 24 h, cells were detached, collected and total RNA extracted by RNeasy Mini Kit (QIAGEN). Following reverse transcription step, FGF1/2, VEGF, MMP-9, HSPE-1 mRNA levels, were quantified by qPCR using the advanced Universal SYBR Green Supermix (Bio Rad) and ABI PRISM 7900HT Thermal Cycler System (Perkin Elmer), according to the manufacturer's instructions. Appropriate no-RT and non-template controls were included in each 96-well PCR reaction, and dissociation analysis was performed at the end of each run to confirm the specificity of the reaction. Relative levels of RNA were calculated using the ddCt method. Standard curve and sample data were run in duplicate. In the Table a mean value is reported.

FGF-2 = assay: as above; assay type: cell-based, human; settings: 24 h, Conc 2.5 uM
Method: as §1

MMP-9 = assay: as above; assay type: cell-based, human; settings: 24 h, Conc 2.5 uM
Method: as §1

VEGF = assay: as above; assay type: cell-based, human; settings: 24 h, Conc 2.5 uM
Method: as §1

[5] = test system: genes encoding for proangiogenic factors, such as FGF1/2, VEGF, MMP-9, HSPE-1; assay: Real-Time Quantitative PCR in HT1080 cells; assay type: cell-based, human; settings: compared with SST0001 tested at 10 µM
Method: as §1

heparanase = target: T1, heparanase (Homo sapiens, UniProt Q9Y251); assay: AGA*IA assay: heparanase-catalyzed fondaparinux cleavage, colorimetric (WST-1); assay type: biochemical; settings: 2.5 nM heparanase, 100 µM fondaparinux, pH 5.0, 3 h at 37°C; class symbols; read-out: AGAIA assay (IC50)
T1 construct: 100 µM fondaparinux, 2.5 nM heparanase and serial dilutions of test compounds
T1 sequence (Q9Y251 158-543 limits assumed): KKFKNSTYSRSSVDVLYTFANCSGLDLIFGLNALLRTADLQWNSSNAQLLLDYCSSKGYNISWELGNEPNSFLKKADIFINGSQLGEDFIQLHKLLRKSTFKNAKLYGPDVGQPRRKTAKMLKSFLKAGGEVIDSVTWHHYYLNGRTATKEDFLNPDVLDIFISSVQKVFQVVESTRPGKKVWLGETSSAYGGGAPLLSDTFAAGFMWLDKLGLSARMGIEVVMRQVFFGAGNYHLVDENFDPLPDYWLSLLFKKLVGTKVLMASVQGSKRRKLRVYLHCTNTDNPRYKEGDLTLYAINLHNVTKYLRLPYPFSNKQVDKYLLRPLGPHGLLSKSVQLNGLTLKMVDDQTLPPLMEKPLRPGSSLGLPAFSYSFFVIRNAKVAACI
T1 sequence (Q9Y251 36-109 limits assumed): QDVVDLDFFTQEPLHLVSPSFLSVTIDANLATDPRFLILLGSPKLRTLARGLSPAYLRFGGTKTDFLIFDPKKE
Method: All compounds were tested in a simple, accurate and robust microplate assay based on the cleavage of the synthetic heparin fragment, the pentasaccharide Fondaparinux (AGA*IA). This assay was originally developed by Hammond and coworkers [Hammond E, Li CP, Ferro V. Development of a colorimetric assay for heparanase activity suitable for kinetic analysis and inhibitor screening. […] Fondaparinux is cleaved by heparanase to generate a reducing disaccharide, which can be quantitatively measured via a colorimetric or a fluorescence assay, the last by the fluorescent sensor polymer-H [Schiemann S, Lühn S, Alban S. Development of both colorimetric and fluorescence heparinase activity assays using fondaparinux as substrate.
The assay measures the appearance of the disaccharide product of heparanase-catalyzed fondaparinux cleavage colorimetrically using the tetrazolium salt WST-1. Assay was essentially performed as described with minor modifications. Briefly, NUNC ELISA 96-well plates were pre-treated with a solution of 4% BSA (bovin serum albumin) in phosphate-buffered saline containing 0.05% Tween 20 (PBST), for 2 h at 37°C, then washed three times with PBST, dried by tapping on paper towel and stored at -20°C. Before use, once again, the plates were washed with PBST.
Then, the absorbance at 560 nm was measured through a microplate reader (Victor 3, Perkin Elmer).
Finally, the measurements were corrected by subtracting both the reagent background and the inner absorbance value of test compound.

[6] = test system: HT1080 (human fibrosarcoma); assay: SRB Cell Cytotoxicity Assay; assay type: cell-based; settings: HT-1080, HT1080, treated for 72h, read-out: Concentration of test compounds at which the cell growth is inhibited by 50 % HT1080
Source text: (§2) SRB Cell Cytotoxicity Assay is an assay based upon the quantitative staining of cellular proteins by sulforhodamine B (SRB). This assay can be used for high-throughput drug screening (Vichai & Kirkitara, Nature Protocol. 2006, 1, 112). Sulforhodamine B is an anionic aminoxanthene dye that forms an electrostatic complex with the basic amino acid residues of proteins under moderately acid conditions, which provides a sensitive linear response.
(§3) To assess a putative antiproliferative activity of the selected compounds, HT1080 (human fibrosarcoma), U87MG (human glioblastoma astrocytoma) and U2OS (human osteosarcoma) cell lines were treated for 72h, in triplicate, with increasing concentrations of heparanase inhibitors. Inhibition of cell proliferation was then measured by the classical colorimetric SRB Cell Cytotoxicity assay. Absorbance was measured by spectrophotometer at a wavelength of 510 nm and cell proliferation was determined as percent with respect to control cells (cells treated with the vehicle alone). EC50 values were then determined by GraphPad Prism.

[7] = test system: U2OS (human osteosarcoma); assay: SRB Cell Cytotoxicity Assay; assay type: cell-based; settings: treated for 72h, read-out: Concentration of test compounds at which the cell growth is inhibited by 50 % U2OS
Source text: as §2, §3

[8] = test system: U87MG (human glioblastoma astrocytoma); assay: SRB Cell Cytotoxicity Assay; assay type: cell-based; settings: U-87 MG, treated for 72h, read-out: Concentration of test compounds at which the cell growth is inhibited by 50 % U87MG
Source text: as §2, §3

Structure (SMILES) | inhibition at 2.5 µM [1] | inhibition at 2.5 µM (U87MG [2]) | inhibition at 2.5 µM (U2OS) | Adhesion Assay (%) HT1080 ([3]; HT1080, Conc. 2.5 µM) | Adhesion Assay (%) U87MG (U87MG [4]; Conc. 2.5 µM) | Gene Expression (% mRNA vs. control) FGF-1 (FGF-1) | Gene Expression (% mRNA vs. control) FGF-2 (FGF-2) | Gene Expression (% mRNA vs. control) MMP-9 (MMP-9) | Gene Expression (% mRNA vs. control) VEGF (VEGF) | potency in silencing gene expression [5] | IC50 (heparanase) | EC50 [6] | EC50 [7] | EC50 [8] | inhibition at 10 µM ([1]; HT-1080, HT1080, Conc. 10 µM) | Invasion Assay Inhibition (%) U87MG (U87MG [2]; Conc. 10 µM) | Invasion Assay Inhibition (%) U2OS (U2OS; Conc. 10 µM) | Adhesion Assay (%) HT1080 ([3]; HT1080, Conc. 10 µM) | Adhesion Assay (%) U87MG (U87MG [4]; Conc. 10 µM)
O=C(O)c1ccc2c(c1)C(=O)N(c1ccc(NC(=O)c3cccc(C(=O)Nc4ccc(N5C(=O)c6ccc(C(=O)O)cc6C5=O)cc4Cl)c3)c(Cl)c1)C2=O [SST0859, 2-[4-[[3-[[4-(5-carboxy-1,3-dioxoisoindol-2-yl)-2-chlorophenyl]carbamoyl]benzoyl]amino]-3-chlorophenyl]-1,3-dioxoisoindole-5-carboxylic acid] | < 50% | < 50% | 50 to 90% | ∼ 95% | ∼ 100% | ∼ 67% | ∼ 73% | ∼ 40% | ∼ 61% | in the same range of reference compound SST0001 |  |  |  |  |  |  |  |  | 
O=C(Nc1ccc(-c2nc3ccccc3[nH]2)cc1)c1ccc(C(=O)Nc2ccc(-c3nc4ccccc4[nH]3)cc2)cc1 [SST0856, 1,4-Benzenedicarboxamide, N1,N4-bis[4-(1H-benzimidazol-2-yl)phenyl]-] | < 50% | < 50% | 50 to 90% | ∼ 98% | ∼ 99% | ∼ 53% | ∼ 76% | ∼ 55% | ∼ 54% | in the same range of reference compound SST0001 |  |  |  |  |  |  |  |  | 
O=C(Nc1cccc(-c2nc3ccccc3[nH]2)c1)c1ccc(Oc2ccc(C(=O)Nc3cccc(-c4nc5ccccc5[nH]4)c3)cc2)cc1 [SST0656, N-[3-(1H-benzimidazol-2-yl)phenyl]-4-[4-[[3-(1H-benzimidazol-2-yl)phenyl]carbamoyl]phenoxy]benzamide] | < 50% | < 50% | < 50% | ∼ 87% | ∼ 97% |  |  |  |  |  | 0.05 to 0.49 µM | > 2.5 µM | > 2.5 µM | > 2.5 µM |  |  |  |  | 
O=C(O)/C=C/C(=O)Nc1ccc(Sc2ccc(Oc3ccc(Sc4ccc(NC(=O)/C=C/C(=O)O)cc4)cc3)cc2)cc1 [SST0806, (E)-4-[4-[4-[4-[4-[[(E)-3-carboxyprop-2-enoyl]amino]phenyl]sulfanylphenoxy]phenyl]sulfanylanilino]-4-oxobut-2-enoic acid] |  |  |  |  |  |  |  |  |  |  | 0.5 to 0.99 µM | > 2.5 µM | > 2.5 µM | > 2.5 µM |  |  |  |  | 
Cc1ccc(C(=O)Nc2ccc(S(=O)(=O)O)c3cc(S(=O)(=O)O)cc(S(=O)(=O)O)c23)cc1NC(=O)c1cccc(NC(=O)Nc2cccc(C(=O)Nc3cc(C(=O)Nc4ccc(S(=O)(=O)O)c5cc(S(=O)(=O)O)cc(S(=O)(=O)O)c45)ccc3C)c2)c1 [Suramin, reference compound] |  |  |  |  |  |  |  |  |  |  |  | > 10 µM | > 10 µM | > 10 µM | < 50% | - | - | ∼ 100% | ∼ 73%
